According to the supplement of paper PMC8882468:
± gives the standard deviation of the averaged measurements.

Assays:
Assay in all cases: CTG-3D luminescence at 96 h relative to day-0 seeding control (ratio to day 0); higher = more growth / less cytotoxicity; PDxO 3D drug screen (set 2), 96 h, CTG-3D normalised to day-0 seeding control.
[1] = test system: HCI-008 (organoid from a HER2-enriched breast cancer xenograft)
[2] = test system: HCI-011.E2 (organoid from an ER-positive breast cancer xenograft)
[3] = test system: HCI-027 (organoid from a triple-negative breast cancer xenograft)
[4] = test system: HCI-025 (organoid from a breast cancer xenograft)

CO[C@H]1C[C@@H]2CC[C@@H](C)[C@@](O)(O2)C(=O)C(=O)N2CCCC[C@H]2C(=O)O[C@H]([C@H](C)C[C@@H]2CC[C@@H](O)[C@H](OC)C2)CC(=O)[C@H](C)/C=C(\C)[C@@H](O)[C@@H](OC)C(=O)[C@H](C)C[C@H](C)/C=C/C=C/C=C/1C [rapamycin]
CTG-3D luminescence at 96 h
Conditions	12.5 pM	0.00025 µM	0.005 µM	0.1 µM	1 µM	10 µM	100 µM	625 fM
[1], days in culture: 325	1.02	2.07	1.15	1.85	1.96	1.63	0.0243	1.04
[1], days in culture: 340	0.377	2.04	1.44	0.883	1.17	–	0.0122	0.721
[1], days in culture: 354	1.17	0.924	1.28	0.845	0.613	1.04	0.0113	0.658
[1], days in culture: 382	1.67	1.28	0.869	1.12	0.658	1.06	0.0068	1.24
[2], days in culture: 74	2.21	1.44	1.16	0.949	0.784	0.995	0.0116	2.1
[3], days in culture: 145	1.48	1.37	1.25	1.15	1.16	0.781	0.00647	1.5
[3], days in culture: 158	1.19	1.63	1.42	2.35	1.1	2.43	0.0139	4.51
[3], days in culture: 164	3.14	1.63	2.5	1.4	1.59	1.86	0.0163	1.82
[3], days in culture: 176	3.28	2.48	0.934	2.11	1.69	1.25	0.00482	2.21
[3], days in culture: 186	1.07	0.887	1.74	1.07	0.381	1.97	0.00722	0.992
[4], days in culture: 175	1.08	1.22	1.44	1.39	1.87	1.67	0.0257	0.977
[4], days in culture: 189	1.35	1.19	1.11	0.862	0.888	0.979	0.0056	1.27
[4], days in culture: 212	2.1	0.842	1.53	1.27	0.387	1.15	0.0154	1.5
[4], days in culture: 224	1.83	1.19	0.969	0.734	1.53	1.31	0.00743	1.36

[2]
Conditions	CTG-3D luminescence at 96 h
12.5 pM	0.71 ± 0.12
0.00025 µM	0.7694 ± 0.0021
0.005 µM	0.724 ± 0.05
0.1 µM	0.909 ± 0.034
1 µM	0.688 ± 0.042
10 µM	1.05 ± 0.065
100 µM	0.0136 ± 0.00019
625 fM	1.05 ± 0.26

CO[C@H]1C[C@@H]2CC[C@@H](C)[C@@](O)(O2)C(=O)C(=O)N2CCCC[C@H]2C(=O)O[C@H]([C@H](C)C[C@@H]2CC[C@@H](OCCO)[C@H](OC)C2)CC(=O)[C@H](C)/C=C(\C)[C@@H](O)[C@@H](OC)C(=O)[C@H](C)C[C@H](C)/C=C/C=C/C=C/1C [everolimus]
CTG-3D luminescence at 96 h
Conditions	12.5 pM	0.00025 µM	0.005 µM	0.1 µM	1 µM	10 µM	100 µM	625 fM
[1], days in culture: 325	0.998	1.62	1.03	2.85	2.2	1.15	-0.00335	1.28
[1], days in culture: 340	1.1	1.26	1.65	0.457	1.04	–	-0.000653	1.09
[1], days in culture: 354	1.49	0.714	2.05	0.859	0.973	0.697	-0.00248	0.841
[1], days in culture: 382	1.54	1.42	1.04	1.1	0.451	0.406	-0.000828	1.26
[2], days in culture: 74	2.42	2.16	1.14	0.719	0.223	0.141	-0.0134	2.48
[3], days in culture: 145	1.16	1.53	1.5	1.39	1.19	0.742	-0.00159	1.87
[3], days in culture: 158	1.27	1.84	2.74	2.29	2.53	0.866	-0.00155	5.49
[3], days in culture: 164	2.66	1.52	1.32	1.43	0.817	0.404	0.000466	2.04
[3], days in culture: 176	2.43	2.12	1.35	1.31	1.44	0.309	0.000718	2.75
[3], days in culture: 186	1.24	1.55	2.18	1.05	0.291	0.288	0.00707	3.1
[4], days in culture: 175	1.08	0.994	0.949	1.13	1.44	1.35	0.00118	1.41
[4], days in culture: 189	1.44	1.22	1.34	1.21	0.974	0.917	0.000135	2.02
[4], days in culture: 212	1.18	2.27	2.08	0.487	0.322	0.167	-0.000795	1.43
[4], days in culture: 224	1.8	2.05	1.58	0.608	0.581	0.366	-0.00196	1.74

[2]
Conditions	CTG-3D luminescence at 96 h
12.5 pM	0.746 ± 0.22
0.00025 µM	0.907 ± 0.2
0.005 µM	0.684 ± 0.031
0.1 µM	0.675 ± 0.32
1 µM	0.247 ± 0.049
10 µM	0.327 ± 0.034
100 µM	-4.7e-05 ± 0.0001
625 fM	1.14 ± 0.41

CCOc1ccn(-c2ccc(F)cc2)c(=O)c1C(=O)Nc1ccc(Oc2ccnc(N)c2Cl)c(F)c1 [ASLAN002]
CTG-3D luminescence at 96 h
Conditions	12.5 pM	0.00025 µM	0.005 µM	0.1 µM	1 µM	10 µM	100 µM	625 fM
[1], days in culture: 325	1.03	2.2	2.46	3.53	3.54	2.48	1.08	2.16
[1], days in culture: 340	0.543	2.27	1.52	1.76	1.83	–	0.867	0.758
[1], days in culture: 354	1.38	1.4	2.81	1.45	1.54	0.917	0.857	1.08
[1], days in culture: 382	1.45	1.54	1.29	1.09	0.767	1.78	0.377	1.52
[2], days in culture: 74	2.83	2.42	2.58	2.8	2.58	2.52	1.66	2.28
[3], days in culture: 145	1.36	2.38	1.99	2.27	1.53	1.16	0.692	1.71
[3], days in culture: 158	2.07	1.82	2.16	2.7	1.65	2.11	1.35	4.78
[3], days in culture: 164	1.59	1.98	3.29	1.48	1.84	1.29	0.787	1.91
[3], days in culture: 176	3.7	2.85	1.77	1.65	2.11	1.09	0.699	2.39
[3], days in culture: 186	2	1.38	1.53	2.45	0.755	0.892	0.737	2
[4], days in culture: 175	1.55	1.97	1.91	2.81	2.73	2.56	1.7	1.46
[4], days in culture: 189	2.49	2.61	1.96	2.27	2.6	1.72	0.561	2.72
[4], days in culture: 212	1.41	1.8	3.86	1.18	0.524	1.75	0.694	1.16
[4], days in culture: 224	2.08	0.982	2.02	1.32	1.95	1.87	1.18	1.86

[2]
Conditions	CTG-3D luminescence at 96 h
12.5 pM	1.61 ± 0.075
0.00025 µM	1.78 ± 0.14
0.005 µM	1.28 ± 0.058
0.1 µM	1.76 ± 0.24
1 µM	1.41 ± 0.029
10 µM	2.11 ± 0.77
100 µM	1.39 ± 0.11
625 fM	2.23 ± 0.58

C[C@@H](Nc1cc(F)cc(F)c1)c1cc(C(=O)N(C)C)cc2c(=O)cc(N3CCOCC3)oc12 [AZD-8186]
CTG-3D luminescence at 96 h
Conditions	12.5 pM	0.00025 µM	0.005 µM	0.1 µM	1 µM	10 µM	100 µM	625 fM
[1], days in culture: 325	1.16	2.3	1.7	3.47	3.65	1.03	0.315	1.35
[1], days in culture: 340	1.72	2.42	1.8	1.21	1.62	–	0.345	1.48
[1], days in culture: 354	1.26	1.28	1.82	1.24	1.26	0.634	0.353	1.32
[1], days in culture: 382	1.77	1.86	1.54	1.44	1.16	0.995	0.193	1.86
[2], days in culture: 74	2.16	1.88	1.79	2.21	1.49	1.12	0.136	2.4
[3], days in culture: 145	1.31	2.65	1.81	1.94	0.882	1.12	0.387	1.74
[3], days in culture: 158	0.987	2.74	2.32	1.39	1.24	1.87	0.581	4.36
[3], days in culture: 164	1.52	0.955	2.29	2.94	1.28	1.36	0.618	1.46
[3], days in culture: 176	2.9	2.55	1.1	1.9	1.15	0.842	0.201	1.89
[3], days in culture: 186	1.9	2.1	2.54	1.7	0.519	1.46	0.286	2.6
[4], days in culture: 175	1.63	2.47	1.8	1.98	2.4	3.48	1.34	1.51
[4], days in culture: 189	2.22	1.46	1.89	1.5	1.81	1.88	0.528	3.16
[4], days in culture: 212	1.07	3.57	2.79	1.25	0.857	1.27	1.2	1.56
[4], days in culture: 224	1.99	2.38	1.66	2	2.68	1.8	1.09	2.03

[2]
Conditions	CTG-3D luminescence at 96 h
12.5 pM	1.45 ± 0.15
0.00025 µM	1.9 ± 0.33
0.005 µM	1.54 ± 0.0099
0.1 µM	1.81 ± 0.39
1 µM	1.47 ± 0.066
10 µM	1.01 ± 0.11
100 µM	0.293 ± 0.16
625 fM	2.13 ± 0.45

COc1cccc2c1C(=O)c1c(O)c3c(c(O)c1C2=O)C[C@@](O)(C(=O)CO)C[C@@H]3O[C@H]1C[C@H](N)[C@@H](O)[C@H](C)O1 [epirubicin]
CTG-3D luminescence at 96 h
Conditions	12.5 pM	0.00025 µM	0.005 µM	0.1 µM	1 µM	10 µM	100 µM	625 fM
[1], days in culture: 325	1.57	2.58	1.67	1.91	0.784	0.192	-0.00523	1.81
[1], days in culture: 340	1.38	1.84	1.52	1	0.612	–	-0.0051	1.34
[1], days in culture: 354	1.58	0.918	1.45	0.732	0.524	0.2	0.00146	1.46
[1], days in culture: 382	1.97	1.33	1.3	1.6	0.222	0.161	-0.000657	1.49
[2], days in culture: 74	2.38	2.27	2.26	2.8	0.677	0.0499	-0.0143	2.23
[3], days in culture: 145	1.6	2.63	1.78	0.146	0.087	0.0692	-0.00274	1.49
[3], days in culture: 158	3.01	2.81	2.46	0.544	0.0846	0.202	-0.00223	4.2
[3], days in culture: 164	2.5	1.5	1.53	0.169	0.142	0.104	-0.00102	3.34
[3], days in culture: 176	3.02	2.26	1.43	0.676	0.0317	0.0395	-0.000121	2.01
[3], days in culture: 186	1.68	0.902	1.46	0.866	0.0439	0.0934	-0.00168	2.13
[4], days in culture: 175	1.67	1.16	0.961	0.846	0.14	0.0198	-0.00458	1.31
[4], days in culture: 189	2.65	2.38	1.58	1.14	0.108	0.00904	-0.0017	2.54
[4], days in culture: 212	1.54	2.81	3.5	1.27	0.125	0.0162	-0.000834	1.07
[4], days in culture: 224	1.88	2.11	1.45	0.576	0.0783	0.0108	-0.00319	1.79

[2]
Conditions	CTG-3D luminescence at 96 h
12.5 pM	1.49 ± 0.16
0.00025 µM	1.68 ± 0.12
0.005 µM	1.53 ± 0.059
0.1 µM	1.6 ± 0.4
1 µM	0.861 ± 0.11
10 µM	0.0857 ± 0.068
100 µM	-0.000843 ± 0.00044
625 fM	1.72 ± 0.42
